{
  "source": "patent US20200215085A1",
  "about": "“Method to Abate Acute Airway Hypersensitivity and Asthma Attacks” (UTI Limited Partnership, priority 2017, published 2020)",
  "key": {"[1]": {"tested_on": "carotid body", "test": "en bloc perfused carotid body preparation: carotid sinus nerve response to LPA", "set-up": "species or system Sprague-Dawley rats", "details": "for reduction of 5 μM LPA-mediated carotid sinus nerve excitation: 5 μM LPA (18:1), AMG9810 10 μM, BrP-LPA 1.5 μM, Ki16425 5 μM, mean±sem; for effect of LPAr blockade on carotid sinus nerve response to LPA (5 μM): BrP-LPA 1.5 μM or Ki16425 5 μM, FIGS. 2A-2B; for en bloc carotid body's response to LPA blocked: en bloc preparation"}, "[2]": {"tested_on": "OVA-sensitized rats", "test": "bradykinin-induced bronchoconstriction (RL, Flexivent) in anesthetized ovalbumin-sensitized rats", "format": "in vivo, Brown Norway rats", "details": "nebulized 0.4 mg bradykinin at 1, 10, 20 min, antagonists iv (BrP-LPA 3 mg/kg, Ki16425 5 mg/kg, AMG9810 10 μM/kg)", "procedure": "In order to examine the involvement of LPA-induced carotid body activity on airway resistance in response to bradykinin nebulization, alfaxan-anesthetized animals and the Flexivent system were used. These experiments were performed with a number of acute interventions affecting the proposed pathway, including vagotomy, carotid body denervation, and TRPV1 and/or LPA receptor blockade. Prior to bradykinin, these interventions had no effect on airway resistance (Holm-S̆idák post hoc test comparing asthma control vs any manipulation group: p>0.06) and as expected, bradykinin had no effect on non-asthmatic lungs (p>0.3). However, the acute bronchoconstriction induced by bradykinin in asthmatic lungs was diminished by at least 60% with all interventions (FIG. 4B). The loss of bradykinin-induced bronchoconstriction also occurred in chronic carotid body denervated, but not sham rats (data not shown).\nBrown Norway rats (80-120 g) were sensitized to ovalbumin (1 mg) with pertussis toxin (0.5 ng) and aluminum hydroxide as adjuvant (0.15 g) dissolved in saline (1 ml ip; OVA sensitized), or saline (1 ml ip; Naïve) for three consecutive days (Days 1, 2, and 3) and challenged with aerosolized 5% ovalbumin (OVA, dissolved in 0.9% saline) or saline (Naïve) on days 15, 18 and 21 for 10 min. All anaesthetized experiments conducted on OVA and Naïve rats were conducted ˜7 days (day 28) following the last aerosol exposure. […]\nOVA Cohort 1 (n=26): To determine the effect of bradykinin and OVA-sensitization on airway resistance (RL) OVA-sensitization (day 28) and naïve rats were anesthetized with isoflurane (5%, balance O2) and instrumented for surgery. […] Data were analyzed with two-way repeated measures ANOVA (time×group). […] Airway mechanics were measured in response to bradykinin nebulizations (as in Cohort 1). Heart rate was attained from the blood pressure waveform, SaO2 was monitored from a pulse oximeter (Kent Scientific, Torrington Conn.) and blood gases were analyzed from 0.1 ml arterial samples drawn before and after bradykinin with a blood gas analyzer (Element POC, Heska Barrie, ON). […]"}, "[3]": {"tested_on": "glomus cells", "test": "Fura 2 calcium imaging of carotid body type I (glomus) cells", "format": "cell-based, Sprague-Dawley rats", "details": "LPA 5 μM", "procedure": "Sprague-Dawley rats (80-150 g, P21-28) were anaesthetised with isoflurane (3-5% in O2) and carotid bodies were harvested and digested in 0.4 mg ml^−1 collagenase type I (Worthington Biochemical Corporation, Lakewood, N.J.) and 0.2 mg ml^−1 trypsin type I (Sigma-Aldrich, St. Catherines, QC) in DPBS enzyme solution with low CaCl2) (86 μM) and MgCl2 (350 μM), for 20 min at 37° C. followed by dissociation with forceps and incubated for an additional 7 min. The tissue was centrifuged (115 g) for 3 min, supernatant removed and the pellet re-suspended in Ham's F12 (Sigma-Aldrich, St. Catherines, QC) supplemented with 10% heat inactivated fetal bovine serum (Biowest, San Marcos, Tex.). Cells were released by trituration with fire polished silanised Pasteur pipettes (Sigma-Aldrich, St. Catherines, QC). […]\nType I cells were loaded with 5 μM FURA-2AM (Invitrogen, Carlsbad Calif.) in serum free Ham's F12 nutrient media for 30 min at room temperature in humidified 5% CO2, 10% O2, before being transferred to FURA-2AM-free media in the same conditions for 20 min. […] The FURA-2 loaded cells were excited by 50 ms exposures to 340/380 nm light using a Lambda 10-3 filter wheel every 5 s and emitted light was recorded at 510 nm using a Coolsnap HQ2 CCD camera (Photometrics, Tucson Ariz.). […]"}, "[4]": {"tested_on": "carotid body", "test": "in situ dual-perfused preparation: phrenic and vagal nerve discharge after LPA to the carotid body circulation", "set-up": "species or system Sprague-Dawley rats", "details": "carotid bodies intact"}, "[5]": {"tested_on": "naïve Brown Norway rats", "test": "airway resistance after intravenous bolus in naïve anesthetized ventilated rats (Flexivent)", "format": "in vivo", "details": "naïve rats with intact CSN; 0.5 ml bolus, 5 μM LPA or 6 μM NaCN"}, "[6]": {"tested_on": "asthmatic rats", "test": "airway resistance after nebulized LPA in asthmatic rats (Cohort 5)", "format": "in vivo, rat", "details": "nebulized LPA 5 μM"}},
  "note": "“Also recorded” adds a separate entry of the source.",
  "data": [
    {"molecule": "CCCCCCCCCCCCCCCC(=O)OC[C@@H](O)CC(Br)P(=O)(O)O", "note": "(stereo partly drawn) [BrP-LPA, [(3S)-1-bromo-4-hexadecanoyloxy-3-hydroxybutyl]phosphonic acid]", "values": [
      {"measurement": "reduction of 5 μM LPA-mediated carotid sinus nerve excitation", "setting": "[1]", "value": "70±3", "unit": "%"},
      {"measurement": "effect of LPAr blockade on carotid sinus nerve response to LPA (5 μM)", "setting": "[1]", "value": "diminishes the response to LPA"},
      {"measurement": "en bloc carotid body's response to LPA blocked", "setting": "[1]", "value": "Approximately 70%"},
      {"measurement": "effect on bradykinin-induced increase in RL compared to OVA", "setting": "[2]", "value": "abolished the effects of bradykinin"}
    ]},
    {"molecule": "Oleoyl-Lysophosphatidic acid [LPA]", "values": [
      {"measurement": "intracellular calcium in glomus cells", "setting": "[3]", "value": "increased intracellular calcium release"},
      {"measurement": "phrenic nerve burst amplitude", "setting": "[4]; LPA 5 μM delivered to the CB circulation, baseline 1±0.5", "value": "2.5±0.5", "unit": "normalized units"},
      {"measurement": "phrenic nerve burst rate", "setting": "[4]; LPA 5 μM delivered to the CB circulation, baseline 1.2±0.8", "value": "20.8±2.9", "unit": "burst·min^−1"},
      {"measurement": "phrenic and vagal nerve efferent discharge", "setting": "[4]; bolus of 5 μM LPA", "value": "increases"},
      {"measurement": "airway resistance", "setting": "[5]", "value": "increased airway resistance"},
      {"measurement": "immediate effect of nebulized LPA on airway resistance", "setting": "[6]", "value": "no immediate effect"},
      {"measurement": "airway resistance after 30 min of nebulized LPA", "setting": "[6]; abolished by carotid body denervation", "value": "increase in airway resistance"}
    ]},
    {"molecule": "CC(C)(C)c1ccc(/C=C/C(=O)Nc2ccc3c(c2)OCCO3)cc1", "note": "[AMG9810, (2E)-N-(2,3-Dihydro-1,4-benzodioxin-6-yl)-3-[4-(1,1-dimethylethyl)phenyl]-2-propenamide]", "values": [
      {"measurement": "reduction of 5 μM LPA-mediated carotid sinus nerve excitation", "setting": "[1]", "value": "41±6", "unit": "%"},
      {"measurement": "LPA response remaining after BrP-LPA or Ki16425 blockade, on subsequent application of AMG9810", "setting": "[1]; AMG9810 10 μM added after LPAr blockade (dual block), LPA 5 μM", "value": "blocks the LPA response; also recorded: almost abolished"},
      {"measurement": "effect on bradykinin-induced increase in RL compared to OVA", "setting": "[2]", "value": "abolished the effects of bradykinin"}
    ]},
    {"molecule": "Cc1noc(-c2ccc(CSCCC(=O)O)cc2)c1NC(=O)OC(C)c1ccccc1Cl", "note": "(stereo not drawn) [Ki16425, 3-(4-[4-([1-(2-chlorophenyl)ethoxy]carbonylamino)-3-methyl-5-isoxazolyl]benzylsulfanyl) propanoic acid]", "values": [
      {"measurement": "reduction of 5 μM LPA-mediated carotid sinus nerve excitation", "setting": "[1]", "value": "61±9", "unit": "%"},
      {"measurement": "effect of LPAr blockade on carotid sinus nerve response to LPA (5 μM)", "setting": "[1]", "value": "diminishes the response to LPA"},
      {"measurement": "en bloc carotid body's response to LPA blocked", "setting": "[1]", "value": "Approximately 70%"},
      {"measurement": "effect on bradykinin-induced increase in RL compared to OVA", "setting": "[2]", "value": "abolished the effects of bradykinin"}
    ]}
  ]
}
